According to patent publication US20220356163A1, “SMALL MOLECULE INHIBITORS OF Id PROTEINS” (MEMORIAL SLOAN KETTERING CANCER CENTER, priority 2019, published 2022):
“Also recorded” adds a separate entry of the source. Where two headings read alike, the source gives them in different places.

Assays:
NanoLuc-ID1 = molecular target: T1, NanoLuc-ID1 (Homo sapiens, UniProt P41134); assay: NanoBRET target engagement assay in digitonin-permeabilized 293T cells; type: cell-based; details: 2 μM tracer, 0-60 μM competitor, 50 μg/mL digitonin
T1 construct: expressed in transfected cells; host or cells: 293T cells, pcDNA3.1, digitonin-permeabilized
Method: NanoBRET™ target engagement assay. A N-terminal NanoLuc® luciferase ID1 fusion protein was synthesized by Genewiz (South Plainfield, N.J., USA) into the pUC57 backbone and then cloned into the pcDNA3.1 plasmid with EcoRI-HF and XbaI (both enzymes from New England Biolabs, Ipswich, Mass., USA). The assay was performed essentially as described in the NanoBRET™ TE Intracellular BET BRD Assay kit manual (Promega Corporation, Madison, Wis., USA). Briefly, cells were transfected and after 24 hours were plated onto flat bottom, non-binding surface, white, polystyrene 96-well plates (Corning Incorporated, Kennebunk, Me., USA). The AGX51 tracer was then added ([…]), followed by digitonin (Sigma, St. Louis, Mo., USA) to permeabilize the cells ([…]). The NanoBRET™ Nano-Glo® Substrate (Promega) was then added and readings taken using a GloMax Discover System instrument (Promega). For the competition assays, cells were treated with 2 μM of AGX51 tracer and 0-60 μM of AGX-A or AGX51.
This assay is based on the NanoBRET™ Target Engagement Intracellular BET BRD Assay (Promega). A construct expressing a NanoLuc® luciferase ID1 fusion protein and an AGX51-fluorescent tracer was generated (FIG. 10A). […]

[1] = tested on: choroidal neovascularization; assay: Laser-induced choroidal neovascularization (CNV) model of AMD; type: in vivo, mouse
Description: Mouse mode/s of ocular neovascularization. CNV was induced as previously described. Tobe et al., Am. J. Pathol., 153, 1641-1646 (1998). Briefly, 4-6 week-old female Id1^−/− or Id3^−/− mice and littermate control Id1^+/+ or Id3^+/+ mice (all in C57BL/6 background) had laser-induced rupture of Bruch's membrane at three locations in each eye and after 14 days mice were euthanized, eyes were removed, and choroidal flat mounts were stained with FITC-labeled Griffonia simplicifolia lectin (Vector Laboratories, Burlingame, Calif.) which selectively stains vascular cells (n=12 mice per group). Flat mounts were examined by fluorescence microscopy and the area of each CNV was measured by image analysis with Image-Pro Plus software (Media Cybernetics, Silver Spring, Md.) by an observer masked with respect to experimental groups. In other experiments, wild type 4-6 week-old, female, C57BL/6 mice had rupture of Bruch's membrane in each eye followed by intravitreal injection of 1-30 μg of AGX51 (racemic, E1 or E2) or vehicle in one eye immediately and after 7 days or mice were given twice daily i.p. injections of 500 μg of AGX51 or vehicle for 14 days (n=7-10 mice per group). The area of CNV was measured 14 days after rupture of Bruch's membrane. For Aflibercept and AGX-A treatment experiments, rupture of Bruch's membrane was carried out and then mice were treated with 40 μg of Aflibercept, 10 μg of AGX51E2, 1-5 μg of AGX51, 1-5 μg of AGX-A, DMSO or combinations. The mice were 4-6 week-old female C57BL/6. After 14 days, the mice were euthanized and CNV was measured as described above.

HCT116 cells = assay: IC50 in HCT116 cells (FIG. 7C); type: cell-based
HUCC-T1 = assay: Cholangiocarcinoma cell viability, HUCC-T1; type: cell-based
Method: Cell viability assays. Cell lines were seeded in a 96 well plate (5000 cells per well). After overnight incubation, cells were treated with AGX51 and incubated for 24 hours then MTT reagent (5 mg/mL) was added per well and the cells were incubated for four hours. Following incubation, media was aspirated and 200 μL DMSO was added per well. Absorbance was then measured at 570 nm using a plate reader (Synergy 2, BioTek). Cell growth profiles were determined by seeding 38,000 cells in a 24-well plate, in triplicate for each time point, and counting the cells on days 1, 3 and 5 after seeding, using trypan blue exclusion of dead cells.
The effects of AGX51 and AGX-A on cholangiocarcinoma cell viability were assessed for the six different cholangiocarcinoma cell lines. The measured IC50 values (in μM) from these studies are provided in Table 2 below, along with the ratio of the AGX51 IC50 to the AGX-A IC50 to aid in comparison.

T1 sequence (P41134 whole entry): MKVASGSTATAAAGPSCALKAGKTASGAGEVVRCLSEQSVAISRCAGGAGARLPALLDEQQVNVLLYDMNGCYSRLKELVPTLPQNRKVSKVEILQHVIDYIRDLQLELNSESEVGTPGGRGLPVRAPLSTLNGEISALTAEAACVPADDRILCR

CCC(=O)N(CCC(c1ccc2c(c1)OCO2)c1ccccc1OC)Cc1ccccc1 (racemic) [AGX51, N-(3-(benzo[d][1,3]dioxol-5-yl)-3-(2-methoxyphenyl)propyl)-N-benzylpropionamide]
competition with AGX51 tracer (NanoLuc-ID1): could be competed with AGX51 | CNV area relative to vehicle control ([1]; i.p. 50 μL of 10 mg/mL bid, day 14): reduced CNV area significantly | CNV area ([1]; intravitreal 5 μg, days 1 and 7, p<0.05): effective at significantly reducing CNV | Id1 immunofluorescence in CNV regions ([1]; intravitreal injection): no Id1 positive cells | CNV area relative to vehicle ([1]; twice daily i.p. injections (~30 mg/kg), p<0.05): significantly reduced CNV | CNV area relative to vehicle ([1]; two intravitreal injections of 10 μg (2 h and 7 days), day 14, p<0.05): significantly suppressed CNV | IC50 (HCT116 cells; Homo sapiens, HCT-116, HCT116 cells, FIG. 7C): 22.3 µM | IC50 (HUCC-T1; Homo sapiens, HuCCT-1): 14.8 µM

COc1ccccc1C(CCNCc1ccccc1)c1ccc(OC(C)C)cc1 (stereo not shown) [AGX-A, N-benzyl-3-(4-isopropoxyphenyl)-3-(2-methoxyphenyl)propan-1-anine]
competition with AGX51 tracer (NanoLuc-ID1): more efficiently; also recorded: exhibiting greater activity than AGX51; also recorded: worked at lower concentrations than AGX51 | CNV area, AGX-A vs AGX51 ([1]; intravitreal 1 μg dose): performed better than AGX51 | fold reduction in IC50 values vs AGX51 (HCT116 cells; cell-based assays, FIGS. 7C-7D (HCT116 and 4T1)): ~4 fold | (AGX51 IC50)/(AGX-A IC50) (HUCC-T1): 3.33 | IC50 (HUCC-T1): 4.44 µM
